Data: paper PMC8637020, “Drug Repositioning For Allosteric Modulation of VIP and PACAP Receptors” (Frontiers in Endocrinology, 2021)

What was measured:
VPAC2 = target: T1, VPAC2 (Homo sapiens, UniProt P41587); assay: FAM-VIP competition binding by FACS ([…] VIP binding left at […]) and aequorin calcium mobilization in CHO cells expressing VPAC2; IC50 extrapolated from the partial calcium inhibition; assay type: cell-based
T1 construct: gene VIPR2
T1 sequence (P41587 24-438): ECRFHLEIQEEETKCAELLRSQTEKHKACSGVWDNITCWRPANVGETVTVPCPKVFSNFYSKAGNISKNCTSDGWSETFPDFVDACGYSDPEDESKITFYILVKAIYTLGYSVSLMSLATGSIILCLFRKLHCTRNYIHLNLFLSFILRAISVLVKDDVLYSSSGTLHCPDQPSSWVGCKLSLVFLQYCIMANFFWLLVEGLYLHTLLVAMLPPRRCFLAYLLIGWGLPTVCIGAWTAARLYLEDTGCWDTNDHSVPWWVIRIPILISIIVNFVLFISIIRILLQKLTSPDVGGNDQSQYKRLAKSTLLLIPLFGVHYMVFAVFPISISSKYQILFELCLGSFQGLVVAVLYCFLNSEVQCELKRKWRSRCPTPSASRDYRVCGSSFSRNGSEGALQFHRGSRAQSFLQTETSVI

VPAC1 = target: T2, VPAC1 (Homo sapiens, UniProt P32241); assay: FAM-VIP competition binding by FACS ([…] VIP binding left at […]) and aequorin calcium mobilization in CHO cells expressing VPAC1; IC50 extrapolated from the partial calcium inhibition; assay type: cell-based
T2 construct: gene VIPR1
T2 sequence (P32241 31-457): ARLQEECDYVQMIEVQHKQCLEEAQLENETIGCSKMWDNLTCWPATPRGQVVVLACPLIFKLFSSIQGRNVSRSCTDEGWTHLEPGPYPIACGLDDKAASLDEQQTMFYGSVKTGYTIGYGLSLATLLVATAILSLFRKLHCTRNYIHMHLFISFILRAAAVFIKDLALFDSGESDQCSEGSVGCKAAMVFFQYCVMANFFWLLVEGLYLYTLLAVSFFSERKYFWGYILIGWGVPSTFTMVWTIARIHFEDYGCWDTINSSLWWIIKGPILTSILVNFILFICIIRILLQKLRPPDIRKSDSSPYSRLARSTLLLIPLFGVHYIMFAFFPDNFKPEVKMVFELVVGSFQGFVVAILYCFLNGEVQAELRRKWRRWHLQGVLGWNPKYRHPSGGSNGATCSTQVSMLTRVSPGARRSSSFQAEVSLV

**Q.** Which IC50 (VPAC2) does the source give for `CCCSc1nc(N[C@@H]2C[C@H]2c2ccc(F)c(F)c2)c2nnn([C@@H]3C[C@H](OCCO)[C@@H](O)[C@H]3O)c2n1` [ticagrelor] here?
**A.** The IC50 was ~20 µM.

**Q.** What about the IC50 (VPAC1) of the same compound?
**A.** Its IC50 is ~50 µM.
